Measured values reported in the CheMixHub ionic liquid set.

Assay: xn = mol fraction of the nth substance listed
Settings: for electrical conductivity: 101 kPa

CCCC[n+]1ccccc1.F[B-](F)(F)F + O
101.3 kPa
Settings	viscosity [mPa·s]
283.15 K, x2 = 0.263	84
283.15 K, x2 = 0.637	15.85
283.15 K, x2 = 0.724	10.78
288.15 K, x2 = 0.11	153.8
288.15 K, x2 = 0.391	35.82
288.15 K, x2 = 0.637	13.01
298.15 K, x2 = 0.724	6.55
303.15 K, x2 = 0.11	67.1
303.15 K, x2 = 0.549	11.1
313.15 K, x2 = 0.549	8.32
313.15 K, x2 = 0.724	4.34
328.15 K, x2 = 0.11	24.88
328.15 K, x2 = 0.724	3.11
333.15 K, x2 = 0.414	7.99
338.15 K, x2 = 0.637	3.52
343.15 K, x2 = 0.11	15.89
343.15 K, x2 = 0.263	9.35
343.15 K, x2 = 0.391	6.91
348.15 K, x2 = 0	18.45

298.15 K
Settings	electrical conductivity [S/m]
x1 = 0.000191	0.096
x1 = 0.0004053	0.191
x1 = 0.0005259	0.247
x1 = 0.0007203	0.33
x1 = 0.0008354	0.365
x1 = 0.0009829	0.44
x1 = 0.001125	0.486
x1 = 0.001254	0.542
x1 = 0.001434	0.6
x1 = 0.001585	0.659
x1 = 0.001811	0.743
x1 = 0.001984	0.819
x1 = 0.002073	0.846
x1 = 0.002208	0.889
x1 = 0.002434	0.962
x1 = 0.002597	1.02
x1 = 0.002828	1.09
x1 = 0.002875	1.11
x1 = 0.003074	1.17
x1 = 0.003174	1.2

Cn1cc[n+](C)c1.[Cl-] + O
viscosity [mPa·s], 100 kPa
Settings	x1 = 8.631e-05	x1 = 0.0002029	x1 = 0.0003509	x1 = 0.0005369	x1 = 0.0007226	x1 = 0.0008926	x1 = 0.001063	x1 = 0.001349	x1 = 0.001718
278.15 K	1.521	1.526	1.529	1.533	1.536	1.538	1.544	1.548	1.553
283.15 K	1.307	1.311	1.313	1.317	1.32	1.323	1.327	1.33	1.334
288.15 K	1.141	1.143	1.145	1.148	1.15	1.152	1.155	1.159	1.164
293.15 K	1.006	1.007	1.009	1.012	1.014	1.016	1.018	1.022	1.026
298.15 K	0.893	0.895	0.897	0.899	0.901	0.903	0.906	0.908	0.912
303.15 K	0.802	0.803	0.804	0.805	0.806	0.808	0.811	0.813	0.817
308.15 K	0.721	0.723	0.724	0.727	0.728	0.73	0.732	0.734	0.737
313.15 K	0.654	0.655	0.657	0.659	0.66	0.662	0.664	0.666	0.669
